Results: PubChem BioAssay (NCI)
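Protocol summary: plate cells (96-well), add compound at 5 concentrations, incubate 48 h, interpolate endpoints linearly. GI50 is the concentration that inhibits growth by half. TGI denotes the concentration required for complete inhibition of growth.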

How the values were obtained:
Test in all cases: NCI tumour cell line growth inhibition, 48 h
ACHN renal = tested on: ACHN renal
CCRF-CEM leukemia = tested on: CCRF-CEM leukemia
EKVX NSCLC = tested on: EKVX NSCLC
HCC-2998 colon = tested on: HCC-2998 colon
KM12 colon = tested on: KM12 colon
MOLT-4 leukemia = tested on: MOLT-4 leukemia
NCI-H23 lung = tested on: NCI-H23 lung
NCI-H522 lung = tested on: NCI-H522 lung
SR leukemia = tested on: SR leukemia
UACC-62 melanoma = tested on: UACC-62 melanoma

Row | Compound | GI50 (ACHN renal) | TGI (ACHN renal) | GI50 (CCRF-CEM leukemia) | TGI (CCRF-CEM leukemia) | GI50 (EKVX NSCLC) | TGI (EKVX NSCLC) | GI50 (HCC-2998 colon) | TGI (HCC-2998 colon) | GI50 (KM12 colon) | TGI (KM12 colon) | GI50 (MOLT-4 leukemia) | TGI (MOLT-4 leukemia) | GI50 (NCI-H23 lung) | TGI (NCI-H23 lung) | GI50 (NCI-H522 lung) | TGI (NCI-H522 lung) | GI50 (SR leukemia) | TGI (SR leukemia) | GI50 (UACC-62 melanoma) | TGI (UACC-62 melanoma)
1 | CCCCC(CCCCCC(CCCC)NCc1ccc2c(c1)OCO2)NCc1ccc2c(c1)OCO2 (stereo unspecified) | 1.17 µM | 2.4 µM | 0.524 µM | 2.58 µM | 1.37 µM | 2.87 µM | 0.178 µM | 0.322 µM | 0.232 µM | 0.51 µM | 0.262 µM | 0.653 µM | 1.32 µM | 2.71 µM | 0.604 µM | 1.27 µM | 0.215 µM | 0.495 µM | 1.57 µM | 3.12 µM
2 | CC/C=C\C[C@H](F)C/C=C1/C(=O)C=C[C@@H]1C/C=C\CCCC(=O)OC | 2.46 µM | 9.07 µM | 1.38 µM | 5.75 µM | 5.17 µM | 12 µM | 4.1 µM | 10.6 µM | 1.26 µM | 3.43 µM | 1.45 µM | 5.27 µM | 2.16 µM | 10.9 µM | 1.32 µM | 5.08 µM | 1.06 µM | 3.42 µM | 0.948 µM | 2.1 µM
3 | CCCCCCCCCCCCCCCCCc1nccn1CCOCCO | 5.95 µg/mL | 11.1 µg/mL | 5.18 µg/mL | 12.4 µg/mL | 4.83 µg/mL | 10.3 µg/mL | 5.76 µg/mL | 11.1 µg/mL | 6.06 µg/mL | 11.4 µg/mL | 5.5 µg/mL | 12.3 µg/mL | 4.73 µg/mL | 9.73 µg/mL | 4.84 µg/mL | 10.2 µg/mL | 4.93 µg/mL | 11.9 µg/mL | 4.99 µg/mL | 9.87 µg/mL
4 | C[C@@]1(C(=O)O)CCC[C@]2(C)C1CC[C@@]13C[C@@](O)(CC[C@]12O)[C@@]1(CO1)C3 (stereo partly specified) | > 100 µM | > 100 µM | > 100 µM | > 100 µM | > 100 µM | > 100 µM | > 100 µM | > 100 µM | > 100 µM | > 100 µM | – | – | > 100 µM | > 100 µM | > 100 µM | > 100 µM | – | > 100 µM | > 100 µM | > 100 µM
5 | COc1cc(Oc2c(C)c(Cl)c(OC)c(Cl)c2OC)c2c(c1Cl)COC2=O | – | 62.9 µM | – | > 100 µM | – | > 100 µM | – | > 100 µM | – | > 100 µM | – | 69.1 µM | – | > 100 µM | – | 33.7 µM | – | 83.5 µM | – | > 100 µM
6 | O=c1oc2ccc(I)cc2c(=O)n1-c1ccc(F)cc1F | 2.52 µM | 8.42 µM | 3.24 µM | 19.2 µM | 1.98 µM | 8.1 µM | 3.23 µM | 13.9 µM | 2.51 µM | 6.8 µM | 2.39 µM | 6.88 µM | 2.14 µM | 7.94 µM | 2.65 µM | 10.2 µM | 3.02 µM | > 100 µM | 1.31 µM | 4.19 µM
7 | O=C1/C=C/[C@@H](O)[C@@H]2C[C@@H](O)C[C@H]2/C=C/CCC[C@H](CCc2cccc3ccccc23)O1 | 0.305 µM | 12.5 µM | 0.136 µM | 8.02 µM | 0.0816 µM | 14 µM | 0.0444 µM | 0.33 µM | 0.032 µM | 0.959 µM | 0.105 µM | 2.61 µM | 0.0637 µM | 1.9 µM | 0.234 µM | 0.581 µM | 0.0353 µM | 1.33 µM | 0.038 µM | 12.9 µM
8 | Oc1ccc(Nc2ccc3ccccc3c2)cc1 | 2.46 µM | 15.6 µM | 7.69 µM | > 100 µM | 3.66 µM | 20.5 µM | 4.29 µM | 17.8 µM | 2.94 µM | 10 µM | 2.75 µM | 32.1 µM | 10.9 µM | 55.3 µM | 8.99 µM | 27.7 µM | 3.32 µM | 38.3 µM | 3.96 µM | 18 µM
9 | CSC(=NC#N)S/C=C/C(=O)c1ccccc1 | 28.6 µM | 76.9 µM | 1.77 µM | 15 µM | 86.4 µM | > 100 µM | 59.4 µM | > 100 µM | > 100 µM | > 100 µM | 22.6 µM | > 100 µM | 23.8 µM | 58.8 µM | 19.8 µM | 47.8 µM | 12.9 µM | 69.4 µM | 33.4 µM | > 100 µM
10 | O=C(Nc1cccc2c1C(=O)c1c(NC(=O)c3ccccc3)ccc(Nc3cccc4c3C(=O)c3ccccc3C4=O)c1C2=O)c1ccccc1 | – | > 100 µM | – | > 100 µM | – | > 100 µM | – | > 100 µM | – | > 100 µM | – | > 100 µM | – | – | – | > 100 µM | – | > 100 µM | – | > 100 µM
11 | O=C(CC1(O)C(=O)N(Cc2ccccc2)c2ccc(Cl)cc21)c1ccc(C(=O)NCC2CCC3(CC2)OOC2(CCCCC2)OO3)cc1 (stereo unspecified) | 0.18 µM | 0.357 µM | 0.274 µM | 0.662 µM | 0.306 µM | 1.08 µM | 1.31 µM | 3.02 µM | 0.268 µM | 0.782 µM | 1.59 µM | 4.56 µM | 0.204 µM | 0.477 µM | 0.169 µM | 0.373 µM | 0.214 µM | 0.531 µM | 6.26 µM | 77.7 µM
12 | BrC(Br)=C1C(=C(Br)Br)C(Br)C1Br (stereo unspecified) | – | 1.49 µM | – | 1.6 µM | – | 4.98 µM | – | 0.777 µM | – | 2.15 µM | – | – | – | 1.46 µM | – | 0.299 µM | – | 1.54 µM | – | 1.91 µM
13 | Cc1c(-c2ccc(C3CCCCC3)cc2)nc2ccc(F)cc2c1C(=O)O | 0.33 µM | > 100 µM | 0.0858 µM | > 100 µM | – | – | 10.1 µM | > 100 µM | 0.402 µM | > 100 µM | 0.0679 µM | > 100 µM | 6.54 µM | > 100 µM | 0.766 µM | > 100 µM | 0.0629 µM | > 100 µM | 0.205 µM | > 100 µM
14 | CSc1c(C2=C(c3cn(C)c4ccccc34)C(=O)NC2=O)c2ccccc2n1C | 0.845 µM | > 25 µM | 0.793 µM | > 17 µM | – | – | 5.31 µM | > 25 µM | 0.843 µM | > 25 µM | 1.43 µM | 8.78 µM | 1.39 µM | > 25 µM | 0.367 µM | 1.59 µM | 0.128 µM | 1.88 µM | 0.896 µM | > 25 µM
